Measurements reported in PubChem BioAssay AID1963982 (Molecular Pharmacology Branch, DTP, NCI, 2024).
Several values for one entry are separate records, joined by “and”; a condition that tells them apart may be missing. Identical values can stand only once.

Test system: 313798-341-R-J2-PDC spheroids, viability
Experiment: Anticancer human tumor 313798-341-R-J2-PDC patient-derived cervical squamous cell carcinoma cell line growth inhibition [PI3K]
Conditions: spheroids with HUVEC and MSC; for viability, T/C: stronger effect = lower value
Outline: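 Spheroid viability read-out. Co-cultures contained the tumor line plus HUVEC and human MSCs. Each agent was paired with a PI3K inhibitor (inavolisib, alpelisib, duvelisib, copanlisib) across half-log dilutions starting at clinical Cmax, or at 10 microM when Cmax was unknown.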

[1] = curve of first compound, second compound 0.00316 µM
[2] = curve of first compound, second compound 0.01 µM
[3] = curve of first compound, second compound 0.0316 µM
[4] = curve of first compound, second compound 0.1 µM
[5] = curve of first compound, second compound 0.316 µM
[6] = curve of first compound, second compound 1 µM
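Also: spheroids exposed to compounds for seven days.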
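For viability, T/C in this document: 100% = DMSO vehicle control viability.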

Question: C=CC(=O)N1CCN(c2nc(=O)n(-c3c(C)ccnc3C(C)C)c3nc(-c4c(O)cccc4F)c(F)cc23)C(C)C1 (stereo not given) + CC(Nc1ccc2c(c1)OCCn1cc(N3C(=O)OCC3C(F)F)nc1-2)C(N)=O was tested. Which IC50 [1] did it give?
Answer: > 10 µM

Question: What about the IC50 [2] of the same molecule?
Answer: > 10 µM

Question: And the IC50 [3]?
Answer: > 10 µM

Question: What about the IC50 [4] of the same molecule?
Answer: > 10 µM

Question: And the IC50 [5]?
Answer: > 10 µM

Question: And the IC50 [6]?
Answer: > 10 µM

Question: And the viability, T/C (second compound 0.00316 µM, first compound 0.0316 µM)?
Answer: 111%

Question: And the viability, T/C (second compound 0.00316 µM, first compound 0.1 µM)?
Answer: 92.3%

Question: What about the viability, T/C (second compound 0.00316 µM, first compound 0.316 µM) of the same molecule?
Answer: 97.2%

Question: What about the viability, T/C (second compound 0.00316 µM, first compound 1 µM) of the same molecule?
Answer: 96%

Question: And the viability, T/C (second compound 0.00316 µM, first compound 3.16 µM)?
Answer: 105%

Question: What about the viability, T/C (second compound 0.00316 µM, first compound 10 µM) of the same molecule?
Answer: 98.7%

Question: And the viability, T/C (second compound 0.01 µM, first compound 0.0316 µM)?
Answer: 98.3%

Question: And the viability, T/C (second compound 0.01 µM, first compound 0.1 µM)?
Answer: 102%

Question: What about the viability, T/C (second compound 0.01 µM, first compound 0.316 µM) of the same molecule?
Answer: 97.8%

Question: What about the viability, T/C (second compound 0.01 µM, first compound 1 µM) of the same molecule?
Answer: 95.2%

Question: What about the viability, T/C (second compound 0.01 µM, first compound 3.16 µM) of the same molecule?
Answer: 102%

Question: What about the viability, T/C (second compound 0.01 µM, first compound 10 µM) of the same molecule?
Answer: 97.7%

Question: What about the viability, T/C (second compound 0.0316 µM, first compound 0.0316 µM) of the same molecule?
Answer: 110%

Question: And the viability, T/C (second compound 0.0316 µM, first compound 0.1 µM)?
Answer: 97.1%

Question: And the viability, T/C (second compound 0.0316 µM, first compound 0.316 µM)?
Answer: 104%

Question: What about the viability, T/C (second compound 0.0316 µM, first compound 1 µM) of the same molecule?
Answer: 96.9%

Question: And the viability, T/C (second compound 0.0316 µM, first compound 3.16 µM)?
Answer: 106%

Question: What about the viability, T/C (second compound 0.0316 µM, first compound 10 µM) of the same molecule?
Answer: 102%

Question: What about the viability, T/C (second compound 0.1 µM, first compound 0.0316 µM) of the same molecule?
Answer: 104%

Question: And the viability, T/C (second compound 0.1 µM, first compound 0.1 µM)?
Answer: 95.3%

Question: And the viability, T/C (second compound 0.1 µM, first compound 0.316 µM)?
Answer: 102%

Question: And the viability, T/C (second compound 0.1 µM, first compound 1 µM)?
Answer: 101%

Question: What about the viability, T/C (second compound 0.1 µM, first compound 3.16 µM) of the same molecule?
Answer: 118%

Question: What about the viability, T/C (second compound 0.1 µM, first compound 10 µM) of the same molecule?
Answer: 100%

Question: And the viability, T/C (second compound 0.316 µM, first compound 0.0316 µM)?
Answer: 83.7%

Question: And the viability, T/C (second compound 0.316 µM, first compound 0.1 µM)?
Answer: 85.8%

Question: What about the viability, T/C (second compound 0.316 µM, first compound 0.316 µM) of the same molecule?
Answer: 86.8%

Question: What about the viability, T/C (second compound 0.316 µM, first compound 1 µM) of the same molecule?
Answer: 96.7%

Question: What about the viability, T/C (second compound 0.316 µM, first compound 3.16 µM) of the same molecule?
Answer: 87.5%

Question: And the viability, T/C (second compound 0.316 µM, first compound 10 µM)?
Answer: 70%

Question: And the viability, T/C (second compound 1 µM, first compound 0.0316 µM)?
Answer: 55.2%

Question: What about the viability, T/C (second compound 1 µM, first compound 0.1 µM) of the same molecule?
Answer: 59.5%

Question: What about the viability, T/C (second compound 1 µM, first compound 0.316 µM) of the same molecule?
Answer: 54.8%

Question: And the viability, T/C (second compound 1 µM, first compound 1 µM)?
Answer: 56.4%

Question: And the viability, T/C (second compound 1 µM, first compound 3.16 µM)?
Answer: 66.7%

Question: And the viability, T/C (second compound 1 µM, first compound 10 µM)?
Answer: 56.2%

Question: What does the source list for Cn1cnc2c(F)c(Nc3ccc(Br)cc3Cl)c(C(=O)NOCCO)cc21 + COc1c(OCCCN2CCOCC2)ccc2c3n(c(=NC(=O)c4cnc(N)nc4)nc12)CCN3?
Answer: IC50 [1]: > 3 µM; IC50 [2]: > 3 µM; IC50 [3]: 2.96 µM; IC50 [4]: < 0.00949 µM; IC50 [5]: < 0.00949 µM; IC50 [6]: < 0.00949 µM; viability, T/C (second compound 0.00316 µM, first compound 0.00949 µM): 88%; viability, T/C (second compound 0.00316 µM, first compound 0.03 µM): 93.1%; viability, T/C (second compound 0.00316 µM, first compound 0.0949 µM): 95.2%; viability, T/C (second compound 0.00316 µM, first compound 0.3 µM): 87.6%; viability, T/C (second compound 0.00316 µM, first compound 0.949 µM): 97.3%; viability, T/C (second compound 0.00316 µM, first compound 3 µM): 75.7%; viability, T/C (second compound 0.01 µM, first compound 0.00949 µM): 93.1%; viability, T/C (second compound 0.01 µM, first compound 0.03 µM): 100%; viability, T/C (second compound 0.01 µM, first compound 0.0949 µM): 97.3%; viability, T/C (second compound 0.01 µM, first compound 0.3 µM): 101%; viability, T/C (second compound 0.01 µM, first compound 0.949 µM): 82%; viability, T/C (second compound 0.01 µM, first compound 3 µM): 70.3%; viability, T/C (second compound 0.0316 µM, first compound 0.00949 µM): 84.8%; viability, T/C (second compound 0.0316 µM, first compound 0.03 µM): 75.5%; viability, T/C (second compound 0.0316 µM, first compound 0.0949 µM): 75%; viability, T/C (second compound 0.0316 µM, first compound 0.3 µM): 62.5%; viability, T/C (second compound 0.0316 µM, first compound 0.949 µM): 73.4%; viability, T/C (second compound 0.0316 µM, first compound 3 µM): 46.8%; viability, T/C (second compound 0.1 µM, first compound 0.00949 µM): 45.2%; viability, T/C (second compound 0.1 µM, first compound 0.03 µM): 35.3%; viability, T/C (second compound 0.1 µM, first compound 0.0949 µM): 32.3%; viability, T/C (second compound 0.1 µM, first compound 0.3 µM): 31.6%; viability, T/C (second compound 0.1 µM, first compound 0.949 µM): 26.4%; viability, T/C (second compound 0.1 µM, first compound 3 µM): 17.1%; viability, T/C (second compound 0.316 µM, first compound 0.00949 µM): 12.5%; viability, T/C (second compound 0.316 µM, first compound 0.03 µM): 9.53%; viability, T/C (second compound 0.316 µM, first compound 0.0949 µM): 5.72%; viability, T/C (second compound 0.316 µM, first compound 0.3 µM): 4.75%; viability, T/C (second compound 0.316 µM, first compound 0.949 µM): 3.32%; viability, T/C (second compound 0.316 µM, first compound 3 µM): 2.54%; viability, T/C (second compound 1 µM, first compound 0.00949 µM): 10.1%; viability, T/C (second compound 1 µM, first compound 0.03 µM): 5.21%; viability, T/C (second compound 1 µM, first compound 0.0949 µM): 3.78%; viability, T/C (second compound 1 µM, first compound 0.3 µM): 3.94%; viability, T/C (second compound 1 µM, first compound 0.949 µM): 2.23%; viability, T/C (second compound 1 µM, first compound 3 µM): 1%

Question: Which viability, T/C (compound 0.00316 µM) does the source give for CC(Nc1ccc2c(c1)OCCn1cc(N3C(=O)OCC3C(F)F)nc1-2)C(N)=O (stereo not given) here?
Answer: 96.5% [middle of 8 runs]

Question: And the viability, T/C (compound 0.01 µM)?
Answer: 103% [middle of 8 runs]

Question: And the viability, T/C (compound 0.0316 µM)?
Answer: 103% [middle of 8 runs]

Question: What about the viability, T/C (compound 0.316 µM) of the same molecule?
Answer: 76.6% [middle of 8 runs]

Question: And the viability, T/C (compound 1 µM)?
Answer: 53.9% [middle of 8 runs]

Question: And the IC50 (compound alone, run of 04/24/2023)?
Answer: 0.523 µM and 0.908 µM and > 1 µM
